Measurements taken from PubChem BioAssay (NCI).
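Exposure lasted 48 hours, with cells grown in 96-well plates and compounds tested at five concentrations. GI50 is the concentration that inhibits growth by half. TGI: concentration producing complete growth inhibition.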

Experiments:
Experiment in all cases: NCI tumour cell line growth inhibition, 48 h
K-562 leukemia = system: K-562 leukemia
OVCAR-5 ovarian = system: OVCAR-5 ovarian
TK-10 renal = system: TK-10 renal
MDA-MB-231 breast = system: MDA-MB-231 breast
M14 melanoma = system: M14 melanoma
HCC-2998 colon = system: HCC-2998 colon
COLO 205 colon = system: COLO 205 colon
SNB-19 CNS = system: SNB-19 CNS
ACHN renal = system: ACHN renal
MCF7 breast = system: MCF7 breast
MOLT-4 leukemia = system: MOLT-4 leukemia
DU-145 prostate = system: DU-145 prostate
UACC-257 melanoma = system: UACC-257 melanoma
T-47D breast = system: T-47D breast
SK-MEL-5 melanoma = system: SK-MEL-5 melanoma
SF-268 CNS = system: SF-268 CNS
HL-60(TB) leukemia = system: HL-60(TB) leukemia
PC-3 prostate = system: PC-3 prostate
HOP-62 NSCLC = system: HOP-62 NSCLC
CCRF-CEM leukemia = system: CCRF-CEM leukemia
NCI/ADR-RES ovarian = system: NCI/ADR-RES ovarian
A549 NSCLC = system: A549 NSCLC
HT29 colon = system: HT29 colon
HOP-92 NSCLC = system: HOP-92 NSCLC
RPMI-8226 leukemia = system: RPMI-8226 leukemia
MDA-MB-435 = system: MDA-MB-435
NCI-H522 lung = system: NCI-H522 lung
HCT-116 colon = system: HCT-116 colon
786-0 renal = system: 786-0 renal
A498 renal = system: A498 renal
U251 CNS = system: U251 CNS
HS 578T breast = system: HS 578T breast
OVCAR-4 ovarian = system: OVCAR-4 ovarian
SNB-75 CNS = system: SNB-75 CNS
SF-539 CNS = system: SF-539 CNS
SR leukemia = system: SR leukemia
SK-OV-3 ovarian = system: SK-OV-3 ovarian
SK-MEL-2 melanoma = system: SK-MEL-2 melanoma
NCI-H226 lung = system: NCI-H226 lung
UACC-62 melanoma = system: UACC-62 melanoma
OVCAR-3 ovarian = system: OVCAR-3 ovarian
OVCAR-8 ovarian = system: OVCAR-8 ovarian
MALME-3M melanoma = system: MALME-3M melanoma
NCI-H460 lung = system: NCI-H460 lung
BT-549 breast = system: BT-549 breast
SN12C renal = system: SN12C renal
SK-MEL-28 melanoma = system: SK-MEL-28 melanoma
SW-620 colon = system: SW-620 colon
HCT-15 colon = system: HCT-15 colon
RXF 393 renal = system: RXF 393 renal
EKVX NSCLC = system: EKVX NSCLC
IGROV1 ovarian = system: IGROV1 ovarian
UO-31 renal = system: UO-31 renal
CAKI-1 renal = system: CAKI-1 renal
LOX IMVI melanoma = system: LOX IMVI melanoma

With `COc1ccc(NC(=O)[C@H](C)NC(=O)OC(C)(C)C)cc1C(=O)Nc1cccc(-c2cc(=O)c3c(OC)c(OC)c(OC)cc3o2)c1` the GI50 (K-562 leukemia) was 2.55 µM, the TGI (K-562 leukemia) was over 100 µM and the GI50 (OVCAR-5 ovarian) was 2.01 µM. For the same compound, the TGI (OVCAR-5 ovarian) was 5.23 µM, the GI50 (TK-10 renal) was 2.04 µM and the TGI (TK-10 renal) was 7.78 µM. It also gave a GI50 (MDA-MB-231 breast) of 1.83 µM, a TGI (MDA-MB-231 breast) of 3.99 µM and a GI50 (M14 melanoma) of 2.98 µM. It also gave a TGI (M14 melanoma) of 7.94 µM, a GI50 (HCC-2998 colon) of 1.76 µM and a TGI (HCC-2998 colon) of 3.21 µM. The GI50 (COLO 205 colon) was 1.87 µM, the TGI (COLO 205 colon) was 3.59 µM and the GI50 (SNB-19 CNS) was 3.56 µM. The TGI (SNB-19 CNS) was over 100 µM, the GI50 (ACHN renal) was 3.34 µM and the TGI (ACHN renal) was over 100 µM. It also gave a GI50 (MCF7 breast) of 2.72 µM, a TGI (MCF7 breast) of 9.52 µM and a GI50 (MOLT-4 leukemia) of 1.71 µM. The TGI (MOLT-4 leukemia) was 7.9 µM, the GI50 (DU-145 prostate) was 3.86 µM and the TGI (DU-145 prostate) was over 100 µM. It also gave a GI50 (UACC-257 melanoma) of 1.99 µM, a TGI (UACC-257 melanoma) of 3.8 µM and a GI50 (T-47D breast) of 1.7 µM. The TGI (T-47D breast) was 5.97 µM, the GI50 (SK-MEL-5 melanoma) was 1.47 µM and the TGI (SK-MEL-5 melanoma) was 2.99 µM. The GI50 (SF-268 CNS) was 3.41 µM, the TGI (SF-268 CNS) was over 100 µM and the GI50 (HL-60(TB) leukemia) was 2.07 µM. It also gave a TGI (HL-60(TB) leukemia) of 4.96 µM, a GI50 (PC-3 prostate) of 2.95 µM and a TGI (PC-3 prostate) of over 100 µM. For the same compound, the GI50 (HOP-62 NSCLC) was 2.14 µM, the TGI (HOP-62 NSCLC) was 5.18 µM and the GI50 (CCRF-CEM leukemia) was 1.86 µM. The TGI (CCRF-CEM leukemia) was 8.26 µM, the GI50 (NCI/ADR-RES ovarian) was 8.01 µM and the TGI (NCI/ADR-RES ovarian) was over 100 µM. For the same compound, the GI50 (A549 NSCLC) was 2.94 µM, the TGI (A549 NSCLC) was 10.9 µM and the GI50 (HT29 colon) was 1.88 µM. It also gave a TGI (HT29 colon) of 3.87 µM, a GI50 (HOP-92 NSCLC) of 0.37 µM and a TGI (HOP-92 NSCLC) of 4.14 µM. The GI50 (RPMI-8226 leukemia) was 1.55 µM, the TGI (RPMI-8226 leukemia) was 5.07 µM and the GI50 (MDA-MB-435) was 2 µM. It also gave a TGI (MDA-MB-435) of 4.11 µM, a GI50 (NCI-H522 lung) of 1.72 µM and a TGI (NCI-H522 lung) of 3.99 µM. It also gave a GI50 (HCT-116 colon) of 2.05 µM, a TGI (HCT-116 colon) of 4.63 µM and a GI50 (786-0 renal) of 3.03 µM. It also gave a TGI (786-0 renal) of over 100 µM, a GI50 (A498 renal) of 3.35 µM and a TGI (A498 renal) of 32.7 µM. The GI50 (U251 CNS) was 2.46 µM, the TGI (U251 CNS) was 6.61 µM and the GI50 (HS 578T breast) was 2.64 µM. The TGI (HS 578T breast) was 9.44 µM, the GI50 (OVCAR-4 ovarian) was 3.13 µM and the TGI (OVCAR-4 ovarian) was over 100 µM. It also gave a GI50 (SNB-75 CNS) of 1.46 µM, a TGI (SNB-75 CNS) of 3.2 µM and a GI50 (SF-539 CNS) of 1.88 µM. For the same compound, the TGI (SF-539 CNS) was 4.12 µM, the GI50 (SR leukemia) was 2.37 µM and the TGI (SR leukemia) was over 100 µM. It also gave a GI50 (SK-OV-3 ovarian) of 2.3 µM, a TGI (SK-OV-3 ovarian) of 4.87 µM and a GI50 (SK-MEL-2 melanoma) of 1.8 µM. It also gave a TGI (SK-MEL-2 melanoma) of 4.29 µM, a GI50 (NCI-H226 lung) of 1.8 µM and a TGI (NCI-H226 lung) of 3.84 µM. For the same compound, the GI50 (UACC-62 melanoma) was 1.7 µM, the TGI (UACC-62 melanoma) was 3.33 µM and the GI50 (OVCAR-3 ovarian) was 2.13 µM. The TGI (OVCAR-3 ovarian) was 4.43 µM, the GI50 (OVCAR-8 ovarian) was 1.7 µM and the TGI (OVCAR-8 ovarian) was 5.47 µM. The GI50 (MALME-3M melanoma) was 2.48 µM, the TGI (MALME-3M melanoma) was 6.73 µM and the GI50 (NCI-H460 lung) was 2.31 µM. The TGI (NCI-H460 lung) was 5.24 µM, the GI50 (BT-549 breast) was 1.52 µM and the TGI (BT-549 breast) was 2.99 µM. For the same compound, the GI50 (SN12C renal) was 2.38 µM, the TGI (SN12C renal) was 7.34 µM and the GI50 (SK-MEL-28 melanoma) was 2.5 µM. For the same compound, the TGI (SK-MEL-28 melanoma) was 5.72 µM, the GI50 (SW-620 colon) was 2.93 µM and the TGI (SW-620 colon) was 8.64 µM. The GI50 (HCT-15 colon) was 2.38 µM, the TGI (HCT-15 colon) was 7.27 µM and the GI50 (RXF 393 renal) was 1.89 µM. It also gave a TGI (RXF 393 renal) of 3.37 µM, a GI50 (EKVX NSCLC) of 3.17 µM and a TGI (EKVX NSCLC) of over 100 µM. The GI50 (IGROV1 ovarian) was 3.25 µM, the TGI (IGROV1 ovarian) was over 100 µM and the GI50 (UO-31 renal) was 2.4 µM. For the same compound, the TGI (UO-31 renal) was over 100 µM, the GI50 (CAKI-1 renal) was 3.06 µM and the TGI (CAKI-1 renal) was over 100 µM. For the same compound, the GI50 (LOX IMVI melanoma) was 1.59 µM and the TGI (LOX IMVI melanoma) was 3.11 µM.
